# Data published in patent US7829575B2, “Methods for treating androgen receptor related disorders” (University of Cincinnati, priority 2006, dated 2010).
# Where two headings read alike, the source gives them in different places.
# How the values were obtained:
# [1] = tested on: LNCaP cells (mutant AR, H877A); assay: LNCaP cell growth, MTT staining; assay type: cell-based; details: for inhibition at 10 µM: Homo sapiens, LNCaP, 96 h
# From the text: Viable cells are stained with MTT (3-(4,5-dimethylthiazol-2-yl)-2,5-diphenyltetrazolium bromide). *, **, and *** designate p<0.05, <0.01, and 0.001, respectively, compared with controls.
# LNCaP-Nilut-R cells = assay: PSA secretion, ELISA of culture supernatant; assay type: cell-based; details: 1 nM DHT, 10 μM, 48 hr (FIG. 5D)
# Procedure: (§1) For the following discussion, see FIG. 5, where androgen-starved LNCaP, LNCaP-Flut-R, or LNCaP-Nilut-R cells are plated into 96-well plates at 2×10^4 cells/wells in SMEM and treated for 48 hr. PSA in the culture supernatant is determined by using an enzyme-linked immunosorbent assay (ELISA) kit. PSA levels are normalized by cell density. […] The DHT-induced production of PSA is reduced by approximately 50% in cells treated with 5 μM of DL3 (FIG. 5B). […] PSA production is elevated in LNCaP-Flut-R and LNCaP-Nilut-R cells compared with that in their parental cells (FIG. 5D).
# LNCaP-Flut-R cells = assay: PSA secretion, ELISA of culture supernatant; assay type: cell-based; details: 1 nM DHT, 10 μM, 48 hr (FIG. 5D)
# Procedure: as §1
# LNCaP cells [2] = assay: PSA and AR mRNA expression, RT-PCR; assay type: cell-based; details: 6 hr
# wildtype AR = biological target: T1, wildtype AR (Homo sapiens, UniProt P10275); assay: PSA promoter luciferase reporter in PC-3 cells co-transfected with AR; details: PC-3 cells transfected with wildtype AR, 20 μM, 1 nM DHT, 24 hr
# T1 sequence (P10275 1-920): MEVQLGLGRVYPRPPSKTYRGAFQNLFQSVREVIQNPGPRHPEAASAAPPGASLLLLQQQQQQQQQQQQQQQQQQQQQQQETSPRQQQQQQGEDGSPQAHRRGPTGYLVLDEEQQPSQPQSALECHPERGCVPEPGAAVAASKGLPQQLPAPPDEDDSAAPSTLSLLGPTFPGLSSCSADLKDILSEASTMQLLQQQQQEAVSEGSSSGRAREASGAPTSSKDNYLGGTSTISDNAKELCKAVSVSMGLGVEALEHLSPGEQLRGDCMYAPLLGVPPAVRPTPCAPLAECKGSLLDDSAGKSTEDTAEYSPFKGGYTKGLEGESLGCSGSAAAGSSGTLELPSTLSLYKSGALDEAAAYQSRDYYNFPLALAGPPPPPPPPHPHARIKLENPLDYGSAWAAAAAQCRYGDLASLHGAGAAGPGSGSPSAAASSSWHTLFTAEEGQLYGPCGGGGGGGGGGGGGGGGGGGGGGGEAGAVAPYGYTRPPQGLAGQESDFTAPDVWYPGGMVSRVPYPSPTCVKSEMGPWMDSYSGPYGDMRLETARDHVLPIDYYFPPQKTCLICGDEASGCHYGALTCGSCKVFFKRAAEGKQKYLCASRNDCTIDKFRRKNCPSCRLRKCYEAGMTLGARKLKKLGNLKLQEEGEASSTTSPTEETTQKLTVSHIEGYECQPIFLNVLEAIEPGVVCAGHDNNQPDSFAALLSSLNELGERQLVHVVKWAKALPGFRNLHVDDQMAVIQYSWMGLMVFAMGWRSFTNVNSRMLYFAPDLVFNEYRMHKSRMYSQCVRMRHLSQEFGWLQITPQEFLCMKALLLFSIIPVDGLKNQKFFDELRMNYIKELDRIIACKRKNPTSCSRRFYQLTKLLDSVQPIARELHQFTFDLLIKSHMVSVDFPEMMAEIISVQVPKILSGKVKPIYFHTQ
# LNCaP cells [3] = assay: Cellular PSA and AR protein, western blotting; assay type: cell-based; details: 24 hr
# Procedure: In FIG. 6, cellular PSA and AR are analyzed by western blotting androgen-starved LNCaP cells.
# LNCaP cells [4] = assay: PSA secretion, ELISA of culture supernatant; assay type: cell-based
# Procedure: PSA in the culture supernatant is determined by using an enzyme-linked immunosorbent assay (ELISA) kit. PSA levels are normalized by cell density.
# LNCaP-AI cells = assay: Growth of androgen-independent LNCaP-AI cells, MTT; assay type: cell-based; details: SMEM, four days
# Procedure: See, for example, FIG. 3 where LNCaP-A1 cells in SMEM and 22Rv1 cells in CMEM are cultured for four days with DL3, followed by MTT staining and 22Rv1 cells are obtained from ATCC.
# LNCaP cells [5] = assay: Cell cycle distribution and apoptosis, flow cytometry (propidium staining) and western blotting; assay type: cell-based
# Procedure: To further appreciate the effects of DL3 on cell growth, cell cycle distribution is determined using the flow cytometry analysis. After incubation of LNCaP cells for 24 hr in SMEM, the majority of cells are in the G1 phase of cell cycle. […] The cell cycle distribution is examined by the propidium staining method. […] Thus, DL3 induces GI arrest of prostate cancer cells in short term culture.
# AR-AF2 (NTD deleted) = assay: PSA promoter luciferase reporter in PC-3 cells co-transfected with AR-AF2; details: 20 μM, 24 hr
# human PSA gene promoter = assay: PSA promoter luciferase reporter (pGL3-PSA-luc) in LNCaP cells; details: 24 hr
# AR N/C interaction = biological target: T2, AR N/C interaction (Homo sapiens, UniProt P10275); assay: AR N/C interaction, mammalian two-hybrid luciferase in HeLa cells; assay type: cell-based; details: 24 hr
# T2 construct: the AR LBD and GAL4 DBD fusion protein (GAL4-LBD); expressed in transfected cells; host or cells: HeLa
# T2 sequence (P10275 669-900 limits assumed): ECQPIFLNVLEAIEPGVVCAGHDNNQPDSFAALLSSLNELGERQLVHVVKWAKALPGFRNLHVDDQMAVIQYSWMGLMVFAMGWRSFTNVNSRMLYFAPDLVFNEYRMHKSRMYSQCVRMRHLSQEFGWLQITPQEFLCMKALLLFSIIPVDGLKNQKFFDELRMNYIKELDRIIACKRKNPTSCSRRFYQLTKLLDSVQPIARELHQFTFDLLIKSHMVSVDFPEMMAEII
# From the text: This is done in a mammalian two-hybrid system, in which HeLa cells are cotransfected with vectors encoding the luciferase reporter driven by a tandem GAL4-responsive elements (GAL4-luc), the AR LBD and GAL4 DBD fusion protein (GAL4-LBD), and AR NTD and VP16 transactivation domain fusion protein (VP16-NTD).
smiles,measurement,setting,value
"CC(C)(C)c1ccc(OCCSc2nc(=O)cc(N)[nH]2)cc1 [DL3, 6-amino-2-(2-4-tert-butyl-phenoxy)-ethylsulfanyl-1H-pyrimidin-4-one]",concentration at which inhibition of DHT-stimulated growth reaches a plateau,"[1]; 1 nM DHT, 4 days",greater than 10 μM
same,effect on DHT-stimulated growth of LNCaP cells,"[1]; 1 nM DHT, SMEM, 4 days, dose response",inhibits DHT-stimulated growth
same,growth of parental LNCaP cells,"[1]; 10 μM, 4 days, MTT (FIG. 2F)",significantly inhibits growth
same,"additive effect on growth of DL3 with Flut, Nilut or Bical","[1]; CMEM, 4 days, 5 μM DL3 and 10 μM of Flut, Nilut, or Bical",No significant additive effect
same,inhibition at 10 µM,[1]; read-out: inhibition of growth of LNCaP cells in the absence of DHT,27%
same,inhibition at 10 µM,[1]; read-out: inhibition of growth of LNCaP cells in the presence of DHT,82%
same,growth of LNCaP cells in the absence of DHT,"[1]; no DHT, dose response",inhibits growth
same,PSA production in LNCaP-Nilut-R cells,LNCaP-Nilut-R cells,inhibits PSA production
same,PSA production in LNCaP-Flut-R cells,LNCaP-Flut-R cells,inhibits PSA production
same,AR mRNA expression,LNCaP cells [2],not significantly altered
same,DHT-induced activation of PSA promoter activity,wildtype AR,significantly inhibits
same,expression of AR protein,LNCaP cells [3]; 5 and 10 μM,not significantly altered
same,expression of AR protein,LNCaP cells [3]; 20 and 40 μM,reduced
same,DHT-induced PSA protein expression,"LNCaP cells [3]; SMEM, Flut, Nilut, Bical at 20 μM",dose-dependently reduced
same,PSA production in parental LNCaP cells,"LNCaP cells [4]; 1 nM DHT, 10 μM, 48 hr (FIG. 5D)",inhibits PSA production
same,reduction of DHT-induced production of PSA,"LNCaP cells [4]; 5 μM, 48 hr",approximately 50%
same,PSA production under androgen-free conditions,"LNCaP cells [4]; 20 μM, no DHT, 48 hr",does not induce PSA production
same,inhibition at 20 µM,"LNCaP cells [4]; Homo sapiens, LNCaP, 48 h, read-out: inhibition of DHT-induced PSA production",~90%
same,"inhibitory effects on DHT-induced PSA production, dose response",LNCaP cells [4]; various concentrations of DL3 and DHT (FIG. 5B),dose-dependent
same,PSA production stimulated by Nilut,LNCaP cells [4]; various concentrations of DL3 and Nilut (FIG. 5C),blocked
same,growth of androgen-independent LNCaP-AI cells,LNCaP-AI cells,suppressed
same,increase of the portion of cells in G1 phase of cell cycle,"LNCaP cells [5]; 24 hr, regardless of presence or absence of DHT",15%
same,induction of apoptosis,"LNCaP cells [5]; 24 hr, DL3 at 20 μM",does not induce apoptosis
same,survivin expression and caspase 3 cleavage (western blotting),LNCaP cells [5]; data not shown,alter neither survivin expression nor caspase 3 cleavage
same,activation of PSA promoter activity by AR-AF2,AR-AF2 (NTD deleted),does not inhibit
same,basal PSA promoter activity,human PSA gene promoter; 20 μM alone,does not significantly alter
same,PSA promoter activity induced by DHT,"human PSA gene promoter; 20 μM, 1 nM DHT",attenuates
same,DHT-induced N/C interaction,"AR N/C interaction; 1 nM DHT, different concentrations",not significantly altered
same,"luciferase activity (N/C interaction), compound alone",AR N/C interaction; no DHT,not significantly altered
